Assay results from patent US8940738B2, “Pyrimidone compounds” (Mitsubishi Tanabe Pharma Corporation, priority 2009, dated 2015).

Target: bovine cerebral TPK1 (Bos taurus, UniProt A0A059UE90)
Experiment: Inhibitory activity against P-GS1 phosphorylation by bovine cerebral TPK1
Assay type: biochemical
Details: P-GS1 substrate, 41.7 μM [γ-32P] ATP, 25° C., 2 hours
Experimental: Experiment 1: Inhibitory Activity of the Medicament of the Present Invention Against P-GS1 Phosphorylation by Bovine Cerebral TPK1
A mixture containing 100 mM MES-sodium hydroxide (pH 6.5), 1 mM magnesium acetate, 0.5 mM EGTA, 5 mM β-mercaptoethanol, 0.02% Tween 20, 10% glycerol, 12 μg/ml P-GS1, 41.7 μM [γ^−32P] ATP (68 kBq/ml), bovine cerebral TPK1 and a compound shown in Table (a final mixture contained 1.7% DMSO deriving from a solution of a test compound prepared in the presence of 10% DMSO) was used as a reaction system. The phosphorylation was started by adding ATP, and the reaction was conducted at 25° C. for 2 hours, and then stopped by adding 21% perchloric acid on ice cooling. The reaction mixture was centrifuged at 12,000 rpm for 5 minutes and adsorbed on P81 paper (Whatmann), and then the paper was washed four times with 75 mM phosphoric acid, three times with water and once with acetone. The paper was dried, and the residual radioactivity was measured using a liquid scintillation counter.

Chain of bovine cerebral TPK1 (A0A059UE90 1-419): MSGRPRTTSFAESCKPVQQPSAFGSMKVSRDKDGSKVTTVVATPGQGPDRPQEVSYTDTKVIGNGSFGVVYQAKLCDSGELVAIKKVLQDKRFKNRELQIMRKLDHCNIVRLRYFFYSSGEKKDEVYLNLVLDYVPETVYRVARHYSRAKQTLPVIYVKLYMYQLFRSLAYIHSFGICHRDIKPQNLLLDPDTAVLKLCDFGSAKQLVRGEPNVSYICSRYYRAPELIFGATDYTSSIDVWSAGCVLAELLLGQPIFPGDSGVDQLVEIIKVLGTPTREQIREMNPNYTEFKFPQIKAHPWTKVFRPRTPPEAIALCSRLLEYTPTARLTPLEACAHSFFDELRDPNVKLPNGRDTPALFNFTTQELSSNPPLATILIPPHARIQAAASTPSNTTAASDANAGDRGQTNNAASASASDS

Row | SMILES | IC50 [nM]
1 | Cn1c(N2CCO[C@@H](c3ccc(F)cc3)C2)nc(-c2ncncc2F)cc1=O [Compound 1, (S)-5′-fluoro-2-[2-(4-fluoro-phenyl)-morpholin-4-yl]-1-methyl-1H-[4,4′]bipyrimidinyl-6-one] | 15.5
2 | Cn1c(N2CCNC(c3ccc(C#N)cc3)C2)nc(-c2ncncc2F)cc1=O (centres unmarked) [Compound 6, 4-[4-(5′-Fluoro-1-methyl-6-oxo-1,6-dihydro-[4,4′]bipyrimidinyl-2-yl)-piperazin-2yl]-benzonitrile] | 10.1
